Experiments:
[1] = target: T1, XIAP-BIR3 (Homo sapiens, UniProt P98170); experiment: XIAP-BIR3 fluorescence polarization binding assay; conditions: FP, probe AbuRPFK-5FAM (SM5F) 5 nM, XIAP-BIR3 40 nM, 60 min at 25° C.
T1 construct: XIAP-BIR3; purchased Reaction Biology APT-11-374
From the text: (§1) IAPs are one main cause of cancer development and may result from overexpression of anti-apoptotic proteins. This protocol establishes three binding assays for […] Bir3 domain, cIAP1 and cIAP2 using FP (fluorescence polariation) technology. The fluorescence probe used is a synthetic peptide conjugated to 5-carboxyfluorescein (AbuRPFK-5FAM). The fluorescence polarization value (mP) was detected by Envision, which was used to reflect the binding degree of protein and fluorescent marker.
(§2) • a. Prepare 100 times of the final cpd concentration in appropriate tube and transfer 5 uL cpd to 45 μL 1× reaction buffer with 10% DMSO • b. The final reference cpd concentration is 10000, 3333.3, 1111.1, 370.4, 123.4, 41.2, 13.7, 4.57, 1.52, 0.51, 0.17 and 0 nM. So the 100 times of the concentration is 1000, 333.3, 111.1, 37.04, 12.34, 4.12, […], 0.15, 0.05, 0.017 and 0 μM. The final test cpds concentration is 3333.3, 1111.1, 370.4, 123.4, 41.2, 13.7, 4.57, 1.52, 0.51, 0.17, 0.057 and 0 nM. So the 100 times of the concentration is 333.3, 111.1, 37.04, 12.34, 4.12, […], 0.15, 0.05, 0.017, 0.0057 and […] • c. Add 8 μL/well each dose enzyme to 384 wen microplate (ProxiPlate-384 F Plus, 6008260) using multichannel pipette, prepared in Table 3. • d. Centrifuge at 1000 rpm • e. Add 2 μL/well cpd to 384 well microplate (ProxiPlate-384 F Plus, 6008260) using multichannel pipette, prepared in step a). • f. Centrifuge at 1000 rpm RT, 15 min. • g Start the assay by adding 10 uL/well substrate (prepared in Table 4) to the same 384 wen microplate using multichannel pipette. • h. Centrifuge at 1000 rpm. • i. Cover the assay plate and incubate for 60 min at 25° C. • j. Read on Envision 2104 for mP and plot the IC50s with mP values. • k. Data analysis: IC50s were determined based on a non-linear regression analysis of data collected.

[2] = target: T2, cIAP2-BIR3 (Homo sapiens, UniProt Q13489); experiment: cIAP2-BIR3 fluorescence polarization binding assay; conditions: FP, probe AbuRPFK-5FAM (SM5F) 5 nM, cIAP2-BIR3 80 nM, 60 min at 25° C.
T2 construct: cIAP2-BIR3; purchased Reaction Biology APT-11-372
T2 sequence (Q13489 238-349 limits assumed): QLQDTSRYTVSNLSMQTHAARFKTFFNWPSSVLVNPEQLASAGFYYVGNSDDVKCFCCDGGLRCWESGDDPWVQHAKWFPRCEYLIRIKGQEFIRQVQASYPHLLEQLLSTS
From the text: as §1, §2

[3] = target: T3, cIAP1-BIR3 (Homo sapiens, UniProt Q13490); experiment: cIAP1-BIR3 fluorescence polarization binding assay; conditions: FP, probe AbuRPFK-5FAM (SM5F) 5 nM, cIAP1-BIR3 15 nM, 60 min at 25° C.
T3 construct: cIAP1-BIR3; purchased Reaction Biology APT-11-370
T3 sequence (Q13490 253-363 limits assumed): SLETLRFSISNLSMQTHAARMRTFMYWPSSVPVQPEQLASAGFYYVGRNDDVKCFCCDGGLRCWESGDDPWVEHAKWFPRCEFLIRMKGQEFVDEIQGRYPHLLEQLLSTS
From the text: as §1, §2

T1 sequence (P98170 241-356 limits assumed): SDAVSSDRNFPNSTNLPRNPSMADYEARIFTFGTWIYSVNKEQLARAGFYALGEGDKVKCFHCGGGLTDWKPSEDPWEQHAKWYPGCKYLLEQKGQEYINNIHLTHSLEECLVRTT

Row | SMILES | IC50 [1] [nM] | IC50 [2] [nM] | IC50 [3] [nM]
1 | CN[C@@H](C)C(=O)N[C@H](C(=O)N1CCC[C@H]1C(=O)N[C@@H]1CCCc2c(-c3cccc(-c4cccc5c4CCC[C@H]5NC(=O)[C@@H]4CCCN4C(=O)[C@@H](NC(=O)[C@H](C)NC)C(C)(C)C)c3)cccc21)C(C)(C)C [Compound III-F, (2S)-1-[(2S)-3,3-dimethyl-2-[(2S)-2-(methylamino)propanamido]butanoyl]-N-[(1R)-5-[3-[(5R)-5-[(2S)-1-[(2S)-3,3-dimethyl-2-[(2S)-2-(methylamino)propanamido]butanoyl]pyrrolidine-2-amido]-5,6,7,8-tetrahydronaphthalen-1-yl]phenyl]-1,2,3,4-tetrahydronaphthalen-1-yl]pyrrolidine-2-carboxamide] | 10 to 100 | 10 to 100 | 1 to 10
2 | CN[C@@H](C)C(=O)N[C@H](C(=O)N1CCC[C@H]1C(=O)N[C@@H]1CCCc2c(NC(=O)c3cccc4c3CCC[C@H]4NC(=O)[C@@H]3CCCN3C(=O)[C@@H](NC(=O)[C@H](C)NC)C3CCCCC3)cccc21)C1CCCCC1 [Compound VII, (S)-1-((S)-2-Cyclohexyl-2-((S)-2-(methylamino)propanamido)acetyl)-N—((R)-5-(((R)-5-((S)-1-((S)-2-cyclohexyl-2-((S)-2-(methylamino)propanamido)acetyl)pyrrolidine-2-carboxamido)-5,6,7,8-tetrahydronaphthalen-1-yl)carbamoyl)-1,2,3,4-tetrahydronaphthalen-1-yl)pyrrolidine-2-carboxamide] | 10 to 100 | 1 to 10 | 1 to 10
3 | CN[C@@H](C)C(=O)N[C@H](C(=O)N1CCC[C@H]1C(=O)N[C@@H]1CCCc2c(OCCc3ccc(CCOc4cccc5c4CCC[C@H]5NC(=O)[C@@H]4CCCN4C(=O)[C@@H](NC(=O)[C@H](C)NC)C4CCCCC4)cc3)cccc21)C1CCCCC1 [Compound I, (2S)-1-[(2S)-2-Cyclohexyl-2-[(2S)-2-(methylamino)propanamido]acetyl]-N-[(1R)-5-[2-[4-(2-[[(5R)-5-[(2S)-1-[(2S)-2-cyclohexyl-2-[(2S)-2-(methylamino)propanamido]acetyl]pyrrolidine-2-amido]-5,6,7,8-tetrahydronaphthalen-1-yl]oxy]ethyl)phenyl]ethoxy]-1,2,3,4-tetrahydmnaphthalen-1-yl]pyrrolidine-2-carboxamide] | 10 to 100 | 10 to 100 | 1 to 10
4 | CN[C@@H](C)C(=O)N[C@H](C(=O)N1CCC[C@H]1C(=O)N[C@@H]1CCc2c(-c3cccc4c3CC[C@H]4NC(=O)[C@@H]3CCCN3C(=O)[C@@H](NC(=O)[C@H](C)NC)C3CCOCC3)cccc21)C1CCOCC1 [Compound V-R, (S)-1-((S)-2-((S)-2-(methylamino)propanamido)-2-(tetrahydro-2H-pyran-4-yl)acetyl)-N-((1R,1′R)-1′-((S)-1-((S)-2-((S)-2-(methylamino)propanamido)-2-(tetrahydro-2H-pyran-4-yl)acetyl)pyrrolidine-2-carboxamido)-2,2′,3,3′-tetrahydro-1H,1′H-[4,4′-biinden]-1-yl)pyrrolidine-2-carboxamide] | 10 to 100 | 10 to 100 | 1 to 10
5 | CN[C@@H](C)C(=O)N[C@@H](C)C(=O)N1CCC[C@H]1C(=O)N[C@@H]1CCCc2c(OCCCCCOc3cccc4c3CCC[C@H]4NC(=O)[C@@H]3CCCN3C(=O)[C@H](C)NC(=O)[C@H](C)NC)cccc21 [Compound I-C, (2S)-1-[(2S)-2-[(2S)-2-(methylamino)propanamido]popanoyl]-N-[(1R)-5-[(5-[[(5R)-5-[(2S)-1-[(2S)-2-[(2S)-2-(methylamino)propanamido]propanoyl]pyrrolidine-2-amido]-5,6,7,8-tetrahydmnaphthalen-1-yl]oxy]pentyl)oxy]-1,2,3,4-tetrahydronaphthalen-1-yl]pyrrolidine-2-carboxamide] | 100 to 1000 | 10 to 100 | 1 to 10
6 | CN[C@@H](C)C(=O)N[C@@H](C)C(=O)N1CCC[C@H]1C(=O)N[C@@H]1CCCc2c(-c3cccc4c3CCC[C@H]4NC(=O)[C@@H]3CCCN3C(=O)[C@H](C)NC(=O)[C@H](C)NC)cccc21 [Compound V-H, (2S)-1-[(2S)-2-[(2S)-2-(methylamino)propanamido]propanoyl]-N-[(5R,5′R)-5′-[(2S)-1-[(2S)-2-[(2S)-2-(methylamino)propanamido]propanoyl]pyrrolidine-2-amido]-5H,5′H,6H,6′H,7H,7′H,8H,8′H-[1,1′-binaphthalen]-5-yl]pyrrolidine-2-carboxamide] | 100 to 1000 | 10 to 100 | 1 to 10
7 | CN[C@@H](C)C(=O)N[C@@H](C)C(=O)N1CCC[C@H]1C(=O)N[C@@H]1CCCc2c(-c3ccc(-c4cccc5c4CCC[C@H]5NC(=O)[C@@H]4CCCN4C(=O)[C@H](C)NC(=O)[C@H](C)NC)cc3)cccc21 [Compound III-H, (2S)-1-[(2S)-2-[(2S)-2-(methylamino)propanamido]propanoyl]-N-[(1R)-5-[4-[(5R)-5-[(2S)-1-[(2S)-2-[(2S)-2-(methylamino)propanamido]propanoyl]pyrrolidine-2-amido]-5,6,7,8-tetrahydronaphthalen-1-yl]phenyl]-1,2,3,4-tetrahydronaphthalen-1-yl]pyrrolidine-2-carboxamide] | 100 to 1000 | 10 to 100 | 1 to 10
8 | CN[C@@H](C)C(=O)N[C@@H](C)C(=O)N1CCC[C@H]1C(=O)N[C@@H]1CCCc2c(-c3cccc(-c4cccc5c4CCC[C@H]5NC(=O)[C@@H]4CCCN4C(=O)[C@H](C)NC(=O)[C@H](C)NC)c3)cccc21 [Compound III-C, (2S)-1-[(2S)-2-[(2S)-2-(methylamino)propanamido]propanoyl]-N-[(1R)-5-[3-[(5R)-5-[(2S)-1-[(2S)-2-[(2S)-2-(methylamino)propanamido]propanoyl]pyrrolidine-2-amido]-5,6,7,8-tetrahydmnaphthalen-1-yl]phenyl]-1,2,3,4-tetrahydmnaphthalen-1-yl]pyrrolidine-2-carboxamide] | 1 to 10 | 1 to 10 | 1 to 10
9 | CN[C@@H](C)C(=O)N[C@H](C(=O)N1CCC[C@H]1C(=O)N[C@@H]1CCOc2c(-c3cccc4c3OCC[C@H]4NC(=O)[C@@H]3CCCN3C(=O)[C@@H](NC(=O)[C@H](C)NC)C(C)(C)C)cccc21)C(C)(C)C [Compound V-D, (2S)-1-[(2S)-3,3-dimethyl-2-[(2S)-2-(methylamino)propanamido]butanoyl]-N-[(4R)-8-[(4R)-4-[(2S)-1-(2S)-3,3-dimethyl-2-[(2S)-2-(methylamino)propanamido]butanoyl]pyrrolidine-2-amido]-3,4-dihydro-2H-1-benzopyran-8-yl-3,4-dihydro-2H-1-benzopyran-4-yl]pyrrolidine-2-carboxamide] | 10 to 100 | 10 to 100 | 1 to 10
10 | CN[C@@H](C)C(=O)N[C@H](C(=O)N1CCC[C@H]1C(=O)N[C@@H]1CCc2c(-c3cccc4c3CC[C@H]4NC(=O)[C@@H]3CCCN3C(=O)[C@@H](NC(=O)[C@H](C)NC)C3CCCCC3)cccc21)C1CCCCC1 [Compound V, (2S)-1-[(2S)-2-cyclohexyl-2-[(2S)-2-(methylamino)propanamido]acetyl]-N-[(1R,1′R)-1′-[(2S)-1-[(2S)-2-cyclohexyl-2-[(2S)-2-(methylamino)propanamido]acetyl]pyrrolidine-2-amido]-1H,1′H,2H,2′H,3H,3′H-[4,4′-biinden]-1-yl]pyrrolidine-2-carboxamide] | 10 to 100 | 10 to 100 | 1 to 10
11 | CN[C@@H](C)C(=O)N[C@H](C(=O)N1CCC[C@H]1C(=O)N[C@@H]1CCCc2cc(OCCOCCOc3ccc4c(c3)CCC[C@H]4NC(=O)[C@@H]3CCCN3C(=O)[C@@H](NC(=O)[C@H](C)NC)C3CCCCC3)ccc21)C1CCCCC1 [Compound II-D, (2S)-1-[(2S)-2-cyclohexyl-2-[(2S)-2-(methylamino)propanamido]acetyl]-N-[(1R)-6-[2-(2-[[(5R)-5-[(2S)-1-1(2S)-2-cyclohexyl-2-[(2S)-2-(methylamino)propanamido]acetyl]pyrrolidine-2-amido]-5,6,7,8-tetrahydronaphthalen-2-yl]oxy]ethoxy)ethoxyl-1,2,3,4-tetrahydronaphthalen-1-yl]pyrrolidine-2-carboxamide Formic Acid] | > 1000 | 10 to 100 | 1 to 10
